Experimental data published in patent publication US20260132129A1 (Genesis Therapeutics, Inc., priority 2022, published 2026).

Biological target: T1, PI3Kα H1047R (T47D cells) (Homo sapiens, UniProt P42336, H1047R)
T1 construct: endogenous in cells; host or cells: T47D cells
Test: PI3Kα cellular assay: pAKT HTRF in T47D cells after EGF stimulation
Type: cell-based
Settings: for IC50: T47D cells (PI3Kα H1047R), pAKT S473 HTRF
Summary of the method: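 T47D cells (PIK3CA H1047R) serum-starved 16 h, then treated 1 h at 37 °C with compound (10,000 nM top, 3-fold steps to 0.5 nM). After 10 min stimulation with 20 ng/mL EGF, cells were lysed and pAKT measured by HTRF.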

[1] = selectivity T47D (H1047R) over SKBR3 (WT), pAKT HTRF
[2] = selectivity of T47D (H1047R) over SKBR3 (WT) pAKT IC50
[3] = 1 hr compound, 20 ng/ml EGF 10 min

T1 sequence (P42336 whole entry H1047R): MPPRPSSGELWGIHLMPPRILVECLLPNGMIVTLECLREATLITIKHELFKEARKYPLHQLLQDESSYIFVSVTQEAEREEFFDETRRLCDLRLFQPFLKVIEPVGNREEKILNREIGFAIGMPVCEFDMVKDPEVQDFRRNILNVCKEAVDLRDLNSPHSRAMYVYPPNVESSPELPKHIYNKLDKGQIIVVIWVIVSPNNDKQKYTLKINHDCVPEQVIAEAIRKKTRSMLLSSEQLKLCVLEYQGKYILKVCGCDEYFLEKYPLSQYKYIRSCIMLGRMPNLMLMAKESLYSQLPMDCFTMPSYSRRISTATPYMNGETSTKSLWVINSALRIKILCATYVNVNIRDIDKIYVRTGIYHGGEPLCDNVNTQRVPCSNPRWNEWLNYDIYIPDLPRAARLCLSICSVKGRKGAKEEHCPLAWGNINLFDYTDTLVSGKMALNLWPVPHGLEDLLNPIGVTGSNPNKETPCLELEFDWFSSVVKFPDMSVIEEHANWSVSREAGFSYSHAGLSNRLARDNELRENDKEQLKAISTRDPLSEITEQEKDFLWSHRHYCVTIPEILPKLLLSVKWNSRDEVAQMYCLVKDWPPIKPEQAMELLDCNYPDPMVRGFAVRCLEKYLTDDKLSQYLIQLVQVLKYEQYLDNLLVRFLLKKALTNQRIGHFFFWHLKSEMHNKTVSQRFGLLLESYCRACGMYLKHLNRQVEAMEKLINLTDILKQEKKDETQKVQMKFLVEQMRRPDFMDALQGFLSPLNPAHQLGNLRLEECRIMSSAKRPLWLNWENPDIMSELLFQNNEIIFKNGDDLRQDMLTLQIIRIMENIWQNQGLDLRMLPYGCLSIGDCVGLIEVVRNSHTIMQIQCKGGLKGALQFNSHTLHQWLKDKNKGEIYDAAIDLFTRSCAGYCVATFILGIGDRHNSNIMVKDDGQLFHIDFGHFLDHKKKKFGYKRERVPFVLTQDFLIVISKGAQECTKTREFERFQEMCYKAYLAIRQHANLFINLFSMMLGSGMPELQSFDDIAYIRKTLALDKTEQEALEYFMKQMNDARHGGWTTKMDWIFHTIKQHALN
T1 sequence (P27986 whole entry partner): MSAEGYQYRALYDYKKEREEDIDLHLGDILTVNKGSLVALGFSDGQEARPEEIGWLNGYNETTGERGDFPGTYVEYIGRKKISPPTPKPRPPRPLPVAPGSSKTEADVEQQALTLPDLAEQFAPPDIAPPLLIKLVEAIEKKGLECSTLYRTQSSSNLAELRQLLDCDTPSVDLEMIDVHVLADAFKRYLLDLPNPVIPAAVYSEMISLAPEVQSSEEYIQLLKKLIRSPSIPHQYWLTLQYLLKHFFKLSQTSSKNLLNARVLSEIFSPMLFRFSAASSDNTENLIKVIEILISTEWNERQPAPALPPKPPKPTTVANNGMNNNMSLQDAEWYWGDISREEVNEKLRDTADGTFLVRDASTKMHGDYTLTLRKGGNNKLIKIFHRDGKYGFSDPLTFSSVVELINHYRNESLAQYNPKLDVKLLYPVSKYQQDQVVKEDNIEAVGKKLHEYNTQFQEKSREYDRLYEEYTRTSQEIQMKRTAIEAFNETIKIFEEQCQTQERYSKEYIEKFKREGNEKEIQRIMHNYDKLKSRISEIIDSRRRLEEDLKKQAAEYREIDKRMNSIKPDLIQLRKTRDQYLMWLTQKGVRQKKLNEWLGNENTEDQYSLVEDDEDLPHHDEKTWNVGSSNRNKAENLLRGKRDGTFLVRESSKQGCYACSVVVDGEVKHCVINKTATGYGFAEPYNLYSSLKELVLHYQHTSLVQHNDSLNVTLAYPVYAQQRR

Compound | IC50 (EGF stimulation) | T47D pAKT S473 HTRF IC50 (H1047R): T47D (H1047R) selectivity over SKBR3 (WT) [1] | T47D pAKT S473 HTRF IC50 (H1047R): T47D (H1047R) selectivity over SKBR3 (WT) [2] | IC50 [3]
Cc1cc([C@H](C)Nc2ccccc2S(=O)(=O)O)c2nc(-c3ccc(C4CC4)cc3)c(C3CC3)c(=O)n2c1 [Compound 1275] | > 2000 nM | C (C denotes ≤5-fold) |  | 
Cc1cc([C@@H](C)Nc2ccccc2C(=O)O)c2nc(-c3cccc(F)c3)c(C(C)C)c(=O)n2c1 [Compound 1277] | 100 to 500 nM | A (A denotes >20-fold) |  | 
Cc1cc(C(C)Nc2ccccc2C(=O)O)c2nc(N3CCN(C(C)(C)C(N)=O)CC3)cc(=O)n2c1 (stereo not drawn) [Compound 581] |  | C (C denotes ≤5-fold) |  | 
Cc1cc([C@H](C)Nc2ccccc2C(=O)O)c2nc(OC3CCOCC3)c(C)c(=O)n2c1 (single isomer, unassigned) [Compound 1371] | < 100 nM | A (A denotes >20-fold) |  | 
Cc1cc(C(C)Nc2ccccc2S(N)(=O)=O)c2nc(-c3cccc(C#N)c3)c(C)c(=O)n2c1 (stereo not drawn) [Compound 1033] | 100 to 500 nM |  | A (A denotes >20-fold) | 
Cc1cc(C(C)Nc2ccccc2C#N)c2nc(-c3ccccc3)c(C)c(=O)n2c1 (stereo not drawn) [Compound 1117] |  | B (B denotes 20-fold≥value>5-fold) |  | 
Cc1cc(C(C)Nc2ccccc2C(=O)O)c2nc(-c3cc(C)ncn3)c(C)c(=O)n2c1 (stereo not drawn) [Compound 1203] | 100 to 500 nM | A (A denotes >20-fold) |  | 
Cc1cc(C(C)Nc2ccccc2)c2nc(N3Cc4ccccc4C3)c(C)c(=O)n2c1 (stereo not drawn) [Compound 1085] | > 2000 nM | C (C denotes ≤5-fold) |  | 
Cc1cc(C(C)Nc2ccccc2C(=O)O)c2nc(-n3cc(C(N)=O)c4ccccc43)cc(=O)n2c1 (stereo not drawn) [Compound 771] | 500 to 2000 nM |  | B (B denotes 20-fold≥value>5-fold) | 
Cc1cc([C@H](C)Nc2ccccc2C(=O)O)c2nc([C@H]3CCCOC3)c(C)c(=O)n2c1 [Compound 1282] | > 2000 nM | C (C denotes ≤5-fold) |  | 
C=CC(=O)Nc1cc(C(C)Nc2ccccc2C(=O)O)c2nc(N3Cc4ccccc4C3)cc(=O)n2c1 (stereo not drawn) [Compound 939] | > 2000 nM |  | C (C denotes ≤5-fold) | 
Cc1cc(C(C)Nc2cccc(F)c2C(=O)O)c2nc(N3CCOCC3)cc(=O)n2c1 (stereo not drawn) [Compound 287] |  | C (C denotes ≤5-fold) |  | > 2000 nM
Cc1cc([C@@H](C)Nc2ccccc2C(=O)O)c2nc(-c3cnc4c(c3)c(C)cn4C)c(C)c(=O)n2c1 [Compound 1050] | < 100 nM |  | A (A denotes >20-fold) | 
COc1cc(-c2nc3c([C@@H](C)Nc4ccccc4C(=O)O)cc(C)cn3c(=O)c2C)ccn1 [Compound 1101] | < 100 nM | A (A denotes >20-fold) |  | 
Cc1cc(C(C)Nc2c(F)cccc2C(=O)O)c2nc(N3CCOCC3)cc(=O)n2c1 (stereo not drawn) [Compound 290] |  | C (C denotes ≤5-fold) |  | > 2000 nM
CC(=O)Cc1cc2ccc(-c3cc(=O)n4cc(C)cc(C(C)Nc5ccccc5C(=O)O)c4n3)cn2n1 (stereo not drawn) [Compound 507] |  | C (C denotes ≤5-fold) |  | > 2000 nM
Cc1cc([C@H](C)Nc2ccccc2C(=O)O)c2cc(-c3ccnnc3)cc(=O)n2c1 [Compound 484] |  | C (C denotes ≤5-fold) |  | > 2000 nM
Cc1cc([C@@H](C)Nc2ccccc2C(=O)O)c2nc(-c3ccc(C4CC4)nc3)c(C)c(=O)n2c1 (single isomer, unassigned) [Compound 973] | < 100 nM |  | A (A denotes >20-fold) | 
CCc1c(-c2ccc(F)cc2)nc2c([C@H](C)Nc3ccccc3C(=O)O)cc(C)cn2c1=O [Compound 1116] | 500 to 2000 nM | B (B denotes 20-fold≥value>5-fold) |  | 
Cc1cc([C@@H](C)Nc2ccccc2C(=O)O)c2nc(-c3ccc4c(c3)c(C3CC3)nn4C)cc(=O)n2c1 [Compound 748] | < 100 nM |  | A (A denotes >20-fold) | 
Cc1cc([C@H](C)Nc2ccccc2S(N)(=O)=O)c2nc(-c3ccc4c(c3)c(C)nn4C3CC3)c(C)c(=O)n2c1 [Compound 962] | > 2000 nM |  | C (C denotes ≤5-fold) | 
Cc1cc(C(C)CNc2ccccc2C(=O)O)c2nc(N3CCOCC3)cc(=O)n2c1 (stereo not drawn) [Compound 735] |  |  | C (C denotes ≤5-fold) | 
Cc1cc([C@@H](C)Nc2ccccc2C(=O)NS(C)(=O)=O)c2nc(N3CCOCC3)cc(=O)n2c1 [Compound 155] |  | C (C denotes ≤5-fold) |  | > 2000 nM

Compound | IC50 (EGF stimulation) | T47D pAKT S473 HTRF IC50 (H1047R): T47D (H1047R) selectivity over SKBR3 (WT) [1] | T47D pAKT S473 HTRF IC50 (H1047R): T47D (H1047R) selectivity over SKBR3 (WT) [2] | IC50 [3]
Cc1cc(C(C)Nc2ccccc2C(=O)O)c2nc(N3CCS(=O)(=O)CC3)cc(=O)n2c1 (stereo not drawn) [Compound 137] |  | C (C denotes ≤5-fold) |  | > 2000 nM
Cc1cc([C@@H](C)Nc2ccccc2-c2ccnnc2)c2nc(-c3ccc4c(C)nn(C5CC5)c4c3)c(C)c(=O)n2c1 [Compound 1128] | > 2000 nM | C (C denotes ≤5-fold) |  | 
Cc1cc(C(C)Nc2ccccc2)c2nc(N3Cc4ccccc4C3)cc(=O)n2c1 (stereo not drawn) [Compound 647] |  |  | C (C denotes ≤5-fold) | 
Cc1cc([C@@H](C)Nc2ccccc2-c2ccnnc2)c2nc(-c3cccnc3)c(C)c(=O)n2c1 [Compound 1144] | > 2000 nM | C (C denotes ≤5-fold) |  | 
Cc1cc(C(C)Nc2ccccc2C(=O)O)c2nc(C3CCN(C(=O)C4(N)CC4)CC3)cc(=O)n2c1 (stereo not drawn) [Compound 524] |  | C (C denotes ≤5-fold) |  | > 2000 nM
Cc1cc([C@@H](C)Nc2ccccc2-c2ccnnc2)c2nc(N3CC(C)OC(C)C3)cc(=O)n2c1 (stereo partly drawn) [Compound 699] |  |  | C (C denotes ≤5-fold) | 
CC(=O)N1CCC(c2ccc(-c3nc4c([C@H](C)Nc5ccccc5C(=O)O)cc(C)cn4c(=O)c3C)cc2)CC1 [Compound 1290] | > 2000 nM | C (C denotes ≤5-fold) |  | 
Cc1cc(C(C)Nc2ccccc2C(=O)O)c2nc(-c3cc(C(N)=O)c4[nH]ccc4c3)cc(=O)n2c1 (stereo not drawn) [Compound 753] | 500 to 2000 nM |  | B (B denotes 20-fold≥value>5-fold) | 
Cc1cc([C@H](C)Nc2ccccc2S(N)(=O)=O)c2nc(-c3cccc(C(F)F)c3)c(C)c(=O)n2c1 [Compound 1098] | > 2000 nM | C (C denotes ≤5-fold) |  | 
Cc1cc([C@H](C)Nc2ccccc2C(=O)O)c2nc(C3CCOCC3)c(C)c(=O)n2c1 [Compound 1056] | > 2000 nM |  | C (C denotes ≤5-fold) | 
Cc1cc([C@H](C)Nc2ccccc2S(N)(=O)=O)c2nc(-c3ccc4c(C)nn(C5CC5)c4c3)c(C)c(=O)n2c1 [Compound 1028] |  |  | C (C denotes ≤5-fold) | 
Cc1cc([C@@H](C)Nc2ccccc2C(=O)O)c2nc(-c3ccnc(C4CC4)c3)cc(=O)n2c1 [Compound 1155] | > 2000 nM | C (C denotes ≤5-fold) |  | 
Cc1cc([C@H](C)Nc2ccccc2S(N)(=O)=O)c2nc([C@H]3CCCN(CC(F)F)C3)c(C)c(=O)n2c1 [Compound 1312] | < 100 nM | A (A denotes >20-fold) |  | 
Cc1cc([C@@H](C)Nc2c(F)cccc2C(=O)O)c2nc(N3CCOCC3)cc(=O)n2c1 [Compound 333] |  | C (C denotes ≤5-fold) |  | > 2000 nM
C=C(C)N1CCC([C@@H]2C[C@@H]3CN(c4cc(=O)n5cc(C)cc([C@H](C)Nc6ccccc6C(=O)O)c5n4)C[C@@H]3C2)CC1 [Compound 796] | > 2000 nM |  | C (C denotes ≤5-fold) | 
Cc1cc(C(C)Nc2ccccc2C(=O)O)c2nc(C3CCC(C)(C)CC3)cc(=O)n2c1 (stereo not drawn) [Compound 622] |  | A (A denotes >20-fold) |  | 100 to 500 nM
Cc1cc(C(C)Nc2ccccc2C(=O)O)c2nc(-c3ccc(CN4CCN(C)CC4)cc3)cc(=O)n2c1 (stereo not drawn) [Compound 308] |  | C (C denotes ≤5-fold) |  | > 2000 nM
Cc1cc(C(C)Nc2ccccc2-c2ccnnc2)c2nc(-c3ccc4c(C)nn(C5CC5)c4c3)c(C)c(=O)n2c1 (stereo not drawn) [Compound 1127] | > 2000 nM | C (C denotes ≤5-fold) |  | 
Cc1cc([C@@H](C)Nc2ccccc2C(=O)O)c2nc(-c3cnc(C)c(Cl)c3)c(C)c(=O)n2c1 (single isomer, unassigned) [Compound 951] | < 100 nM |  | A (A denotes >20-fold) | 
Cc1cc(C(C)Nc2cccnc2C(=O)O)c2nc(-c3cccc(F)c3)c(C)c(=O)n2c1 (stereo not drawn) [Compound 1223] | < 100 nM | A (A denotes >20-fold) |  | 
Cc1cc([C@H](C)Nc2ccccc2C(=O)O)c2nc(-c3ccc4c(c3)c(C#N)nn4C3CC3)c(C)c(=O)n2c1 [Compound 1049] | > 2000 nM |  | C (C denotes ≤5-fold) | 
Cc1cc([C@@H](C)Nc2ccccc2C(=O)O)c2nc(-c3cc(C)c(F)c(C)c3)cc(=O)n2c1 [Compound 662] | 100 to 500 nM |  | A (A denotes >20-fold) | 
